In experiment [1] the test system is B16-F1 mouse melanoma cells. In words: Pigmentation assay (melanin in media). Format: cell-based. Here is the method: B16-F1 mouse melanoma cells (American Type Culture Collection, Maryland, USA) were maintained in 75 cm^2 culture flasks in RPMI 1640 medium (ICN-Flow, cat. no. 12-60-54) supplemented with L-glutamine (4 mM) and 10% foetal bovine serum (FBS) at 37° C. in a water saturated, 5% CO2 in air atmosphere. Cells were passaged twice weekly.
Subconfluent B16 cells were seeded in 96 well microtiter plates at a density of 5000 cells/well and cultured overnight in DMEM (Life Technologies, NY) containing 10% foetal bovine serum and 1% penicillin/streptomycin without phenol red at 37° C. under 5% CO2. After 24 hours, the media was replaced with fresh media containing the test materials or vehicle controls. Cells were incubated for 72 hours at which time melanin was visible in the control wells. Next, the melanin containing media from each well was transferred to a clean 96 well plate and quantified by reading the absorbance at 530 nm using a microplate spectrophotometer (Dynatech MR5000) and correcting for the baseline absorption of fresh medium. As the corrected absorption is proportional to the melanin concentration the percentage pigmentation for a skin lightening test substance can be calculated as: […]
where OD530 test and OD530 ref indicate the average corrected absorption of the medium from the wells with the test substance and that of the medium from the wells without the test substance. The percentage inhibition caused by the test substance is then 100 - % pigmentation.

In another experiment the test system is decorin. In words: Dot blot assay for decorin synthesis in human dermal fibroblasts. Format: cell-based. The protocol:
Primary human foreskin fibroblasts at passage 2 (P2) were seeded into 12-well plates at 10000 cells/cm^2 and maintained for 24 hours in an atmosphere of 5% carbon dioxide and 4% oxygen in Dulbeccos Modified Eagles Medium (DMEM) supplemented with 10% foetal calf serum. After this time the cells were washed with serum free DMEM and then incubated in fresh serum free DMEM for a further 60 hours. The fibroblast monolayers were then washed again with serum free DMEM. Test reagents and vehicle controls were added to the cells in triplicate in a final volume of 0.4 ml/well fresh serum free DMEM and incubated for a further 24 hours. This fibroblast conditioned medium was either analysed immediately or snap frozen in liquid nitrogen and stored at -70° C. for future analysis. The cells were then counted and data from the dot-blot analysis subsequently standardised to cell number.
Samples of conditioned medium from dermal fibroblasts treated with vehicle (as a control) or test reagents were supplemented with 20 mM dithiothreitol (1:10 dilution of 200 mM stock solution) and 0.1% sodium dodecylsulphate (1:100 dilution of 10% stock solution), mixed well and then incubated at 75° C. for 2 minutes. A standard for the assay was generated by serial dilution of neat fibroblast conditioned medium from fibroblasts seeded at 10000 cells/cm^2 in a 175 cm^2 flask and maintained in serum free DMEM as described above. Assay samples were subsequently applied in triplicate to a prewetted sheet of Immobilon-P transfer membrane using the 96-well Bio-Dot Apparatus from Bio-Rad as described in the manufacturers guidelines. Approximately 200 μl of medium was applied per well. […] Dot intensity was assessed by computer-assisted image analysis using the quantification tools in ImageQuant™, standardised to cell number and the effects of various test reagents on decorin and procollagen-I synthesis were determined relative to a vehicle treated control value of 100 arbitrary units.

`CCCCCCCCCCC/C=C\CCCCC(=O)O` [Petroselinic Acid, petroselinic acid]: in experiment [1], the “melanin production (in words)” value is listed as “inhibits melanin production”. This molecule also yielded an activity at 0.01 % in experiment [1] (Mus musculus, B16-F1, 0.01%, 72 hours, n = 4, ** (0.000)) of 79.5%. Also, the activity at 0.013 % in experiment [1] (Mus musculus, B16-F1, 0.013%, 72 hours, n = 4, ** (0.000)) was 40.4%. In experiment [1] (Mus musculus, B16-F1, 0.02%, 72 hours, n = 4, ** (0.000)), this molecule showed an activity at 0.02 % of 55.3%. Also, the activity at 0.04 % in experiment [1] (Mus musculus, B16-F1, 0.04%, 72 hours, n = 4, ** (0.000)) amounted to 3.9%. In experiment [1] (Mus musculus, B16-F1, 0.1%, 72 hours, n = 4, ** (0.000)), this molecule had an activity at 0.1 % of 19.3%. In addition, the “decorin synthesis (in words)” value in the experiment on decorin (compared to the control) was “significantly upregulates”. Besides, in the experiment on decorin (petroselinic acid 10 μM vs retinoic acid 1 μm (so in the source)), the “magnitude of upregulation of decorin synthesis vs retinoic acid (in words)” value is on record as “exceeds that of the bench-mark anti-aging dermal repair active, retinoic acid”.

Values taken from US6042841A, “Cosmetic method of treating skin” (Unilever Home & Personal Care USA Division of Conopco, Inc., priority 1998, dated 2000).
